The text below walks through data of US10561658B2, “Thieno- and pyrrolopyrimidine analogues as anticancer agents and methods of use thereof” (UNIVERSITY OF MARYLAND, BALTIMORE COUNTY, priority 2015, dated 2020).

The test system of test [1] is murine leukemia L1210 cells. Briefly: Cell proliferation assay, L1210. The class given is cell-based. Particulars: Mus musculus. As for the experimental part: Cell proliferation assays for several of the compounds were performed on L1210, a mouse lymphocytic leukemia cell line; CCRF-CEM [39] an acute lymphoblastic leukemia cell line; and HeLa, a human cancer cell line derived from a human cervical adenocarcinoma. Murine Leukemia L1210, human lymphocytic CEM and human cervix carcinoma HeLa cells were obtained from the American Type Culture Collection (ATCC) (Rockville, Md.). All assays were performed in 96-well microtiter plates. To each well were added (5-7.5)×10^4 tumor cells and a given amount of the test compound. The cells were allowed to proliferate for 48 h (murine leukemia L1210 cells) or 72 h (human lymphocytic CEM and human cervix carcinoma HeLa cells) at 37° C. in a humidified CO2-controlled atmosphere. At the end of the incubation period, the cells were counted in a Coulter counter. The IC50 (50% inhibitory concentration) was defined as the concentration of the compound that inhibited cell proliferation by 50%. […] Presence of C7 iodine on the 2,4-dichloro pyrrolo[3,2-d] (compound 20) increases the anticancer activity by a factor of 5 when compared to compound 19. […] This alludes to a) importance of C7-I towards activity against cancer cell lines for the 2,4-O-benzylated analogues (15 and 16).

Test [2] deals with Escherichia coli ATCC 25922. Kind of test: Antimicrobial growth inhibition, E. coli. The class given is cell-based. The following applies: ATCC25922; Escherichia coli ATCC 25922, 100 μM. As for the experimental part: (§1) Evaluation of antimicrobial activity in vitro. Compounds were tested against the following panel of bacteria and fungi purchased from the American Type Culture Collection (ATCC). Briefly, bacteria were grown to mid-log phase, diluted with fresh medium to an optical density at 600 nm (OD600) of 0.030-0.060 and then diluted again 1:10. This suspension (195 μL) was added to wells in a 96 well microtiter plate (Sarstedt) and 5 μL of compound dissolved in DMSO was added to give a final concentration of 100-0.1 μM at 2.5% DMSO by volume. A DMSO negative control and standard antibiotic positive controls were included in each plate. All compounds were tested in triplicate for each concentration. Plates were sealed with parafilm, placed in a Ziploc bag to prevent evaporation, and incubated at 30° C. (fungi) or 37° C. (bacteria) for 16-20 hours (48 hours for C. neoformans). The OD600 values for each well were determined with a plate reader (Biotek, EL800) and the data were standardized to the DMSO control wells after subtracting the background from blank medium. Initial single concentrations were tested at 100 μM and active compounds were further tested with at least nine concentrations for a full dose response. Dose response curves were generated using GraphPad Prism 5 software and used to determine the MIC95 concentrations (minimal concentration that inhibits 95% of growth). Compounds 1, 2, 5 and 19 were screened for growth inhibition activity against a panel of bacteria and fungi at a concentration of 100 as shown in Table 2. Compound 5 was included to test the importance of the C4-Cl substituent for activity across a broader range of biological systems.

Test [3] has as its system Pseudomonas aeruginosa ATCC 27853. Briefly: Antimicrobial growth inhibition, P. aeruginosa. The class given is cell-based. The following applies: ATCC27853; Pseudomonas aeruginosa ATCC 27853, 100 μM. On the procedure:
as §1, with “Compounds 1, 2, 5 and 19 were screened for growth inhibition activity against a panel of bacteria and fungi at a concentration of 100 as shown in Table 2. Compound 5 was included to test the importance of the C4-Cl substituent for activity across a broader range of biological systems.” left out

Test [4] deals with Candida albicans ATCC 10231. Briefly: Antifungal growth inhibition and MIC95, C. albicans. The class given is cell-based. The following applies: ATCC10231; for inhibition at 100 µM: Candida albicans ATCC 10231, 100 μM; for MIC: Candida albicans, C. albicans ATCC 10231, minimum concentration for inhibition by 95%. On the procedure:
as §1
(§2) Compounds 1 and 2 were further tested against the susceptible fungal strains to determine the MIC95 values.

The next test deals with Cryptococcus neoformans. Briefly: Antifungal growth inhibition and MIC95, C. neoformans strains. Format: cell-based. On the procedure: as §1, §2
A further test relates to L1210 leukemia cell line. Briefly: Apoptosis analysis (annexin V staining), L1210. The following applies: for cells undergoing apoptosis (annexin V): L1210, 1 μM, 48 h. Format: cell-based, mouse. On the procedure: FIGS. 5 A and B contains apoptosis analysis (annexin V staining) in the L1210 leukemia cell line relating to compounds 1 (ii), 2 (iii) and 19 (iv) relative to a control (i). After incubation with 1 μM compound (1) for 48 h, 60% of the cells were observed undergoing apoptotic cell death, with the vast majority of these in early apoptosis (FIG. 5A (ii)).
(§3) Many antineoplastic compounds arrest cell proliferation by activating specific checkpoints that block progression through the cell cycle. To test whether compounds 1 or 2 inhibited cell proliferation by this mechanism, their effects on L1210 cell cycle distributions were monitored using propidium iodide staining and flow cytometry (FIG. 7). Cell cycle and apoptosis studies were conducted on L1210, a mouse lymphocytic leukemia cell line obtained from the American Type Culture Collection and grown in Dulbecco's Modified Eagle's Medium (DMEM) plus 10% fetal bovine serum (FBS). 2×10^6 cells were seeded in 100 mm dishes and treated with vehicle alone or compounds 1 or 2 at the IC50 values determined by cell viability assays or an equivalent volume of DMSO. At 24 and 48 h following treatment the cells were collected, fixed, and stained with propidium iodide (Sigma Aldrich) immediately before analysis by flow cytometry. Vehicle-treated cells were largely confined to G1 and S phases, with very small (<5%) subpopulations in the G2/M phase or showing sub-(<G1) or super-genomic (>G2) DNA content.

A further test concerns L1210 cells. Kind of test: Cell cycle distribution (propidium iodide, flow cytometry), L1210. The class given is cell-based, mouse. Particulars: IC50 concentrations, 24 h or 48 h. On the procedure: 0.32 μM compound 1, b. 5.4 μM compound 2, and analyzed by flow cytometry of fixed, propidium iodide-stained cells. A minimum of 3000 cells were analyzed per cell population. Each bar represents the mean±SD across 4 independent cell samples.
as §3

[5] abbreviates: FIG. 7 concentration, said in b126 to be the IC50 from cell viability assays, read-out: IC50 concentration used for L1210 cell cycle analysis.
The mark [6] stands for this setting: ATCC66031, Cryptococcus neoformans ATCC 66031, 100 μM.
Where [7] appears, read: C. neoformans B4546, minimum concentration for inhibition by 95%.
Where [8] appears, read: C. neoformans JEC20, minimum concentration for inhibition by 95%.
[9] abbreviates: C. neoformans VANC-R265, 100 μM.

Values after ≈ are worked out from the molar mass of the structure shown. Like-named read-outs stand apart in the source and are kept apart here. Some results are limits rather than exact numbers.

For `Clc1nc(Cl)c2sccc2n1` [Compound 1, 2,4-Dichlorothieno[3,2-d]pyrimidine], the IC50 in test [1] (setting [5]) turned out to be 0.32 µM. Also, the inhibition at 100 µM is under 43% in test [2]; under 43% in test [3]; 99% in test [4]; 101% in the test with Cryptococcus neoformans (setting [6]); 96% in the test on Cryptococcus neoformans (C. neoformans B4546, 100 μM); 100% in the test on Cryptococcus neoformans (C. neoformans JEC20, 100 μM). The inhibition at 100 µM in the test with Cryptococcus neoformans (setting [9]) stood at 93%. The MIC in test [4] is 23.4 µM (≈ 4.8 µg/mL); in the test on Cryptococcus neoformans (setting [7]), 34.6 µM (≈ 7.1 µg/mL); against Cryptococcus neoformans (setting [8]), 16.6 µM (≈ 3.4 µg/mL). Also, the “cells undergoing apoptosis (annexin V)” value in the test on L1210 leukemia cell line is given as 60%. Also, the “changes in L1210 cell cycle distribution” value with L1210 cells is “no substantial changes”.

As to `Clc1nc(Cl)c2scc(Br)c2n1` [Compound 2, 7-Bromo-2,4-dichlorothieno[3,2-d]pyrimidine], the IC50 in test [1] (setting [5]) is 5.4 µM. Besides, the inhibition at 100 µM in test [2] was under 43%; in test [3], under 43%; in test [4], 99%; in the test on Cryptococcus neoformans (setting [6]) it was 55%; with Cryptococcus neoformans (C. neoformans B4546, 100 μM), 82%; in the test on Cryptococcus neoformans (C. neoformans JEC20, 100 μM) it was 91%. Besides, in the test on Cryptococcus neoformans (setting [9]), the inhibition at 100 µM amounted to 67%. The MIC in test [4] came to 10.7 µM (≈ 3.04 µg/mL); with Cryptococcus neoformans (setting [7]), 7 µM (≈ 1.99 µg/mL); with Cryptococcus neoformans (setting [8]) it was 5.8 µM (≈ 1.65 µg/mL). In the test with L1210 leukemia cell line (L1210, 5.4 μM), the “Annexin V positive cells” value came to 55%. For the same molecule, the “cells consistent with late apoptosis” value in the test with L1210 leukemia cell line (L1210, 5.4 μM) is listed as 40%. In addition, the “changes in L1210 cell cycle distribution” value with L1210 cells was “no substantial changes”.

Consider `Clc1nc(Cl)c2[nH]ccc2n1` [Compound 19, 2,4-Dichloropyrrolo[3,2-d]pyrimidine], for which the IC50 in test [1] (48 h proliferation, Coulter counter, read-out: IC50 L1210) was 6.8 ± 2.8 µM. For the same molecule, the inhibition at 100 µM in test [2] is under 43%; in test [4] it was under 43%; in the test on Cryptococcus neoformans (setting [6]), under 43%; in the test with Cryptococcus neoformans (C. neoformans B4546, 100 μM), under 43%; in the test on Cryptococcus neoformans (C. neoformans JEC20, 100 μM), under 43%; in the test on Cryptococcus neoformans (setting [9]), under 43%. The “cells undergoing apoptosis (annexin V)” value in the test on L1210 leukemia cell line is 85%.

What is called inhibition is the change of the read-out against control, counted positive when it falls. By MIC is commonly meant the lowest concentration found to suppress growth. The low end stands for greater potency, the high end for weaker potency.
